Data set [1] has as its target T1, α1A Human Adrenergic Receptor (Homo sapiens, UniProt P25100).
T1 construct: The entire coding region of α1A (1719 bp); expressed in transfected cells
T1 sequence (P25100 1-572): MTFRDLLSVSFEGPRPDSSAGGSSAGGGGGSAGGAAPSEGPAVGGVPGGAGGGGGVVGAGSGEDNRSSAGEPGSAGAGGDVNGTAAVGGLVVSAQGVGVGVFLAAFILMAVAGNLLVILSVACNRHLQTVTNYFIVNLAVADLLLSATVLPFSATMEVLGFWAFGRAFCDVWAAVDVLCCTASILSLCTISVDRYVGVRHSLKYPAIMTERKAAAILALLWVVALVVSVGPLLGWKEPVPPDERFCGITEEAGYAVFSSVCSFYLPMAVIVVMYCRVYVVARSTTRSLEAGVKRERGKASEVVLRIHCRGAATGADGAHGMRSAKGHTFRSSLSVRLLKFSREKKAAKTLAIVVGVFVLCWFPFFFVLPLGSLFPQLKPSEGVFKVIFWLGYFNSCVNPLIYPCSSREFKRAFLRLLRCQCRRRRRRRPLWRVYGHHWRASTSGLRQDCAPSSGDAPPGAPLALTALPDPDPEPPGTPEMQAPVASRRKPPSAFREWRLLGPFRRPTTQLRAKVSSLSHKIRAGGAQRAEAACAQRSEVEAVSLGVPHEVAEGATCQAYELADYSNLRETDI
Kind of data set: Radioligand binding, [3H]prazosin, cloned human α1A adrenergic receptor. The gist of the method: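 Filter-bound radioactivity measured [3H]prazosin (0.5 nM) binding to membranes of LM(tk−) cells expressing the human α1A receptor after 20 min at 37° C. Phentolamine at 10 μM set nonspecific binding.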

In the next data set the target is T2, L-type calcium channel (Rattus norvegicus, UniProt P22002).
T2 construct: membrane fragments of rat cardiac muscle; from tissue; host or cells: rat cardiac muscle membranes
T2 sequence (P22002 whole entry, other chains not shown, the tested form may be a part): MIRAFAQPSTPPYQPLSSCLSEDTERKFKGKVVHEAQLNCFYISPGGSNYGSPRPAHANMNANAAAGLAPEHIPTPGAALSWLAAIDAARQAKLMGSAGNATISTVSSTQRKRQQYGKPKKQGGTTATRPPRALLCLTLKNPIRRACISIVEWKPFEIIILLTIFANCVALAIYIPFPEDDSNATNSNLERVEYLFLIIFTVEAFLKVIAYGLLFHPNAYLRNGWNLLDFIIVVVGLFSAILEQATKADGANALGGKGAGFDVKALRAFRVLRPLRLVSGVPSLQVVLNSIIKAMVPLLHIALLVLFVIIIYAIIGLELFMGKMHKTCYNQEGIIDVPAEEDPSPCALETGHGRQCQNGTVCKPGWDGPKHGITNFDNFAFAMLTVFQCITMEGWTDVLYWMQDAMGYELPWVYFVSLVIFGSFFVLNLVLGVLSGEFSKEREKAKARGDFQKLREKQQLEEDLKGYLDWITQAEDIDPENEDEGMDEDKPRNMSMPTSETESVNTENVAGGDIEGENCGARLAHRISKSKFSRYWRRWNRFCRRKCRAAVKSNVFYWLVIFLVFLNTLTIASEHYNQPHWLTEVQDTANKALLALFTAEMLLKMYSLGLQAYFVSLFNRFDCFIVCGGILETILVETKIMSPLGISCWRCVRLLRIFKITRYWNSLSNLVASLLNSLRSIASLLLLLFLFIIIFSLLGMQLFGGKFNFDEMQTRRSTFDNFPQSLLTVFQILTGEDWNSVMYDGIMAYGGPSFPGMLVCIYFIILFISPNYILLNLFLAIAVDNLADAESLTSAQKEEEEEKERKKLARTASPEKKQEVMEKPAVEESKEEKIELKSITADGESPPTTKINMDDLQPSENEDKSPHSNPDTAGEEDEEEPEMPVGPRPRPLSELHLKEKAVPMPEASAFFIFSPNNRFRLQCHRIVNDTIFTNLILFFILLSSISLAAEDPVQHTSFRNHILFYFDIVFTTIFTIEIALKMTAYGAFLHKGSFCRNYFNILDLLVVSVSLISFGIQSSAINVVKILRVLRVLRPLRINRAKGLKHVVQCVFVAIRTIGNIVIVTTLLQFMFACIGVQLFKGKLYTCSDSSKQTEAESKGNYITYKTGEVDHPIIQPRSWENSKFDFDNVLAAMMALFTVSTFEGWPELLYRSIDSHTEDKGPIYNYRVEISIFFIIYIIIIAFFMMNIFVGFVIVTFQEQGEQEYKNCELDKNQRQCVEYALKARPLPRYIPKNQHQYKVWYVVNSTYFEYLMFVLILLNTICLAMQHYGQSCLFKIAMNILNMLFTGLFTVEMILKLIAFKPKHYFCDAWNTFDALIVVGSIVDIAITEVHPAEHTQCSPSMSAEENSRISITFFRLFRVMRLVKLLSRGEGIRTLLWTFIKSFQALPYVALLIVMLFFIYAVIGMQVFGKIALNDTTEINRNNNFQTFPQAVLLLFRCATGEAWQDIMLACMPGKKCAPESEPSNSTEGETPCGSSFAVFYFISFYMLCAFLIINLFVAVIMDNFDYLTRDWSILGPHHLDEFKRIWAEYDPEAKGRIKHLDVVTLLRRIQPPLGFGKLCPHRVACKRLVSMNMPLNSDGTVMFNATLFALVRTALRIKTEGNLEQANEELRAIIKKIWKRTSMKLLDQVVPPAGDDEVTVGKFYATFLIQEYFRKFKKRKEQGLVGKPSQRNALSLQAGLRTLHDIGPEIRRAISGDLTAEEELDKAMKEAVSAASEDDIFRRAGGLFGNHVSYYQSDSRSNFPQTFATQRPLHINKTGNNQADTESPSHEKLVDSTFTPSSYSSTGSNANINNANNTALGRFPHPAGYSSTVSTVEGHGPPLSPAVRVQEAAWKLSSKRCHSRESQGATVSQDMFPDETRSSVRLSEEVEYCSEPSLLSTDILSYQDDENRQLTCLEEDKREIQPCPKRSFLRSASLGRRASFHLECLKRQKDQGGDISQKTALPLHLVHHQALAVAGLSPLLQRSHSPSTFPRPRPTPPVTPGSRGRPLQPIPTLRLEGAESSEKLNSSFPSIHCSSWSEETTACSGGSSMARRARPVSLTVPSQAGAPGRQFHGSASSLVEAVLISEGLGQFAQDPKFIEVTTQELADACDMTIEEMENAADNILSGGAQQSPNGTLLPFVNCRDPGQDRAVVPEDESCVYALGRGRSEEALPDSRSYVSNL
T2 sequence (P54290 25-944 partner limits assumed, other chains not shown): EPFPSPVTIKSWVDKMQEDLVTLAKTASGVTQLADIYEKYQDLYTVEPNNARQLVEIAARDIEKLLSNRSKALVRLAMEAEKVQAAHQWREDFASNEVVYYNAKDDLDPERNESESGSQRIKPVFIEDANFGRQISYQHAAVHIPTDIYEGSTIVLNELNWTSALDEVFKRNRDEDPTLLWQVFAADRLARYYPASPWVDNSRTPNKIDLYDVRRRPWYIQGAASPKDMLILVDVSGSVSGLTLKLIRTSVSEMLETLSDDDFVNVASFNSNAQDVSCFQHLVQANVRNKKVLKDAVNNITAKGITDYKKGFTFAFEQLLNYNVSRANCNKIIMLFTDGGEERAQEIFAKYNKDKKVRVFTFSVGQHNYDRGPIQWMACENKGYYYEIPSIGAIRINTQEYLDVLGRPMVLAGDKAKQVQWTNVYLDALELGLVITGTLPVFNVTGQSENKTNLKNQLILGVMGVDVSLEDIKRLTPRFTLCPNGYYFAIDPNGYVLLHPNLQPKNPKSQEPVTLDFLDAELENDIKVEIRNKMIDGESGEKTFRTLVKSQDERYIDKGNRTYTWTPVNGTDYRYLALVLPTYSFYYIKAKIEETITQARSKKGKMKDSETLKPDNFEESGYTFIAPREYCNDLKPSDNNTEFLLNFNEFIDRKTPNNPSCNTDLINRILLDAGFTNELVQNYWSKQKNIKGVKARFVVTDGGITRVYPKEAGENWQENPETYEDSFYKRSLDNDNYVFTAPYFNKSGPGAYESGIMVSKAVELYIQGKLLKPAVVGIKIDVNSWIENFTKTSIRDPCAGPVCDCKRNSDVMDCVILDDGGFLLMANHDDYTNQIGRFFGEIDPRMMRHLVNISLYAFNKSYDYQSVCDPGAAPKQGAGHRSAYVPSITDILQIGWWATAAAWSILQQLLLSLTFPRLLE
T2 sequence (P54290 945-1091 partner limits assumed, other chains not shown): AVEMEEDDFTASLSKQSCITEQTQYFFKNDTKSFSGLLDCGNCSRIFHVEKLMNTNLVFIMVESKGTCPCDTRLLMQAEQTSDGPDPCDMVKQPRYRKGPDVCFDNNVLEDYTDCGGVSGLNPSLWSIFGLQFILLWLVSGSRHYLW
Briefly: Competition binding of [3H]nitrendipine to membrane fragments of rat cardiac muscle. To be noted: [3H]nitrendipine, rat cardiac muscle membranes; SEM and n in lines below; read-out: pKi Ca (converted).

Data set [2] has as its target T3, α1C Human Adrenergic Receptor (Homo sapiens, UniProt P35348).
T3 construct: The entire coding region of α1C (1401 bp); expressed in transfected cells
T3 sequence (P35348 1-466): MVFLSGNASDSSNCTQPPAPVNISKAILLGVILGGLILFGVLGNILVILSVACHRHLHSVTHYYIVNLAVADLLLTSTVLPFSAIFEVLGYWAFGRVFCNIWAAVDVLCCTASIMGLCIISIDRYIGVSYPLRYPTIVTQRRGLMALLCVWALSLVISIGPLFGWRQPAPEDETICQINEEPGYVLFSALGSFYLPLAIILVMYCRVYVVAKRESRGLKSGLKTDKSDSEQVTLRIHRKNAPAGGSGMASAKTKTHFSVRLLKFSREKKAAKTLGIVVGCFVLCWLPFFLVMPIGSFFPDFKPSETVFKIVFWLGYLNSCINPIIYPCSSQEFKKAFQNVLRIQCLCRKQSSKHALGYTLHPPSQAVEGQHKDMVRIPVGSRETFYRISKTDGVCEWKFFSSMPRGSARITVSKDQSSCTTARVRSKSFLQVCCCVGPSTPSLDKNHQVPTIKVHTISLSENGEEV
Briefly: Radioligand binding, [3H]prazosin, cloned human α1C adrenergic receptor. Put shortly:
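Read-out is filter-retained [3H]prazosin (0.5 nM) bound to membranes of LM(tk−) cells stably carrying the human α1C receptor. Incubation ran 20 min at 37° C. at pH 7.5, with 10 μM phentolamine marking nonspecific binding.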

Where [3] appears, read: [3H]prazosin, cloned human receptor in LM(tk-) cell membranes, SEM and n in lines below, read-out: pKi alpha-1 1a (converted).
Where [4] appears, read: cloned human receptor in LM(tk-) cell membranes, SEM and n in lines below, read-out: pKi alpha-1 1c (converted).
Where [5] appears, read: PKi alpha-1 1a, [3H]prazosin, cloned human α1A receptor, LM(tk-) cell membranes.
The mark [6] stands for this setting: PKi alpha-1 1c, cloned human α1C receptor, LM(tk-) cell membranes.
Where [7] appears, read: PKi alpha-1 1a, [3H]prazosin, cloned human receptor, LM(tk-) cell membranes, mean.
Where [8] appears, read: PKi alpha-1 1c, cloned human receptor, LM(tk-) cell membranes, mean.
[9] abbreviates: [3H]prazosin, cloned human α1A receptor, LM(tk-) cell membranes, read-out: PKi alpha-1 1a (converted).
[10] abbreviates: cloned human α1C receptor, LM(tk-) cell membranes, read-out: PKi alpha-1 1c (converted).
The mark [11] stands for this setting: [3H]prazosin, cloned human receptor, LM(tk-) cell membranes, mean, read-out: PKi alpha-1 1a (converted).
Setting [12] is: cloned human receptor, LM(tk-) cell membranes, mean, read-out: PKi alpha-1 1c (converted).

Counter-ions that a name gives are not always drawn. Like-named read-outs stand apart in the source and are kept apart here.

With `CC(=O)C1=C(C)NC(C)=C(C(=O)NCCCN2CCC(c3ccccc3)(c3ccccc3)CC2)C1c1ccc([N+](=O)[O-])cc1` (stereo not drawn) [Example 47, 5-Acetyl-1,4-dihydro-2,6-dimethyl-4-(4-nitrophenyl)-3-{N-[3-(4,4-diphenylpiperidin-1-yl)propyl]}carboxamidopyridine], the “pKi alpha-1 1a” value in data set [1] ([3H]prazosin, cloned human receptor in LM(tk-) cell membranes, SEM and n in lines below) was found to be 6.29. The Ki on L-type calcium channel was 17.8 µM. Moreover, the “pKi alpha-1 1c” value in data set [2] (cloned human receptor in LM(tk-) cell membranes, SEM and n in lines below) is recorded as 8.93.
Turning to `COC(=O)C1=C(C)NC(C)=C(C(=O)OCCCN2CCCCC2)C1c1ccc([N+](=O)[O-])cc1` (stereo not drawn) [Example 50, 1,4-Dihydro-5-methoxycarbonyl-2,6-dimethyl-4-(4-nitrophenyl)-3-[3-(piperidin-1-yl)propoxy]carbonylpyridine hydrochloride etherate], the Ki was 1.95 µM in data set [1] (setting [3]), 9.55 µM on L-type calcium channel and 0.0851 µM in data set [2] (setting [4]).
For the molecule `CC(=O)C1=C(C)NC(COCCN)=C(C(=O)NCCCN2CCC(c3ccccc3)(c3ccccc3)CC2)C1c1ccc2c(c1)OCO2` (stereo not drawn) [Example 239, 5-Acetyl-2-((2-aminoethyl)oxy)methyl-1,4-dihydro-6-methyl-4-(3,4-methylenedioxy)phenyl-3-(N-(3-(4,4-dipheylpiperidin-1-yl)propyl))carboxamidopyridine], the melting point is 80 °C (dec.). The molecule also gave a Ki in data set [1] (setting [5]) of 0.275 µM. Moreover, in data set [2] (setting [6]), the Ki is 0.00204 µM.
On to `CNC(=O)C1=C(C)NC(C)=C(C(=O)NCCCN2CCC(c3ccccc3)(c3ccccc3)CC2)C1c1ccc2c(c1)OCCO2` (stereo not drawn) [Example 163], for which the melting point is 115 to 116 °C. This molecule showed a Ki in data set [1] (setting [7]) of 0.776 µM. The molecule further gave a Ki in data set [2] (setting [8]) of 0.0186 µM.
On to `CCOC(=O)C1(c2ccccc2)CCN(CCCNC(=O)C2=C(COCCN)NC(C)=C(C(C)=O)C2c2ccc3c(c2)OCO3)CC1` (stereo not drawn) [Example 244, 5-Acetyl-2-((2-aminoethyl)oxy)methyl-3-(N-(3-(4-ethoxycarbonyl-4-phenylpiperidin-1-yl)propyl)) carboxamido-1,4-dihydro-6-methyl-4-(3,4-methylenedioxy) phenylpyridine], for which the melting point is 55 °C (dec.). The Ki in data set [1] (setting [9]) is 0.851 µM. Also, the Ki in data set [2] (setting [10]) is 0.00347 µM.
Turning to `CCC1=C(C(=O)OCCO)C(c2ccc([N+](=O)[O-])cc2)C(C(=O)NCCCN2CCC(c3ccccc3)(c3ccccc3)CC2)=C(COC)N1` (stereo not drawn) [Example 246], the melting point was 73 °C (dec.). Further, the Ki in data set [1] (setting [5]) is 0.316 µM. In data set [2] (setting [6]), the Ki is 0.00275 µM.
On to `CC(=O)C1=C(C)NC(COCCN)=C(C(=O)NCCCN2CCC(c3ccccc3)(c3ccccc3)CC2)C1c1ccc(F)cc1` (stereo not drawn) [Example 242, 5-Acetyl-2-((2-aminoethyl)oxy)methyl-4-(4-fluoro)phenyl-1,4-dihydro-6-methyl-3-(N-(3-(4,4-diphenylpiperidin-1-yl)propyl))carboxamidopyridine], for which the melting point is 75 °C (dec.). The Ki in data set [1] (setting [5]) was 0.224 µM. The Ki in data set [2] (setting [6]) is 0.00398 µM.
Regarding `CC(=O)C1=C(C)NC(CCCCN)=C(C(=O)NCCCN2CCC(c3ccccc3)(c3ccccc3)CC2)C1c1ccc([N+](=O)[O-])cc1` (stereo not drawn) [Example 176, 5-Acetyl-2-(4-aminobutyl)-1,4-dihydro-6-methyl-4-(4-nitrophenyl)-3-{N-[3-(4,4-diphenylpiperidin-1-yl)propyl]}carboxamidopyridine], the melting point lay within 76 to 79 °C. This molecule showed a Ki in data set [1] (setting [7]) of 0.309 µM. For the same molecule, the Ki in data set [2] (setting [8]) is 0.00372 µM.
Take `COC(=O)C1(c2ccccc2)CCN(CCCNC(=O)C2=C(CCCCN)NC(C)=C(C(C)=O)C2c2ccc([N+](=O)[O-])cc2)CC1` (stereo not drawn) [Example 178, 5-Acetyl-2-(4-aminobutyl)-1,4-dihydro-3-{N-[3-(4-methoxycarbonyl-4-phenylpiperidin-1-yl)propyl]}carboxamido-6-methyl-4-(4-nitrophenyl) pyridine]: the melting point is 62 to 65 °C. Also, the Ki in data set [1] (setting [11]) is 0.832 µM. The Ki in data set [2] (setting [12]) is 0.00257 µM.
As for `CCNC(=O)C1=C(CC)NC(CC)=C(C(=O)NCCCN2CCC(C(=O)OC)(c3ccccc3)CC2)C1c1ccc([N+](=O)[O-])cc1` (stereo not drawn) [Example 180, 2,6-Diethyl-1,4-dihydro-5-(N-ethyl)carboxamido-3-{N-[3-(4-methoxycarbonyl-4-phenylpiperidin-1-yl)propyl]}carboxamido-4-(4-nitrophenyl)pyridine], the melting point was 217 °C (dec.). The Ki in data set [1] (PKi alpha-1 1a) is 3.02 µM. In data set [2] (setting [12]), the Ki was 0.00363 µM.
For the molecule `CCC1=C(C(=O)NCCOC)C(c2ccc([N+](=O)[O-])cc2)C(C(=O)NCCCN2CCC(c3ccccc3)(c3ccccc3)CC2)=C(COC)N1` (stereo not drawn) [Example 247, 6-Ethyl-1,4-dihydro-5-N-((2-methoxy)ethyl)carboxamido-2-(methyloxy)methyl-4-(4-nitro)phenyl-3-(N-(3-(4,4-diphenylpiperidin-1-yl)propyl)) carboxamidopyridine], the melting point is 70 °C (dec.). The Ki in data set [1] (setting [5]) was 0.977 µM. The Ki in data set [2] (setting [6]) was 0.0245 µM.
Molecule `COC(=O)C1=C(C)NC(C)=C(C(=O)NCCCN2CCC(c3ccccc3)CC2)C1c1ccc(C)cc1` (stereo not drawn) [Example 31, 1,4-Dihydro-3-methoxycarbonyl-2,6-dimethyl-4-(4-methylphenyl)-5-(N-(3-(4-phenylpiperidin-1-yl)propyl)carboxamido)pyridine] came in with a melting point of 139 to 139.5 °C. Also, the Ki in data set [1] (setting [3]) is 0.112 µM. Further, the Ki in data set [2] (setting [4]) is 0.00117 µM.
Turning to `CCC1=C(C(=O)NN2CCOCC2)C(c2ccc([N+](=O)[O-])cc2)C(C(=O)NCCCN2CCC(c3ccccc3)(c3ccccc3)CC2)=C(COC)N1` (stereo not drawn) [Example 248, 6-Ethyl-1,4-dihydro-2-((methyl)oxy)methyl-5-N-(morpholin-4yl)carboxamido-4-(4-nitro)phenyl-3-(N-(3-(4,4-diphenylpiperidin-1-yl)propyl))carboxamidopyridine], the melting point is 112 °C (dec.). The Ki in data set [1] (setting [9]) is 2.95 µM. Also, the Ki in data set [2] (setting [10]) was 0.174 µM.
In turn, `CCOC(=O)C1(c2ccccc2)CCN(CCCNC(=O)C2=C(COCCN)NC(CC)=C(C(=O)NC)C2c2ccc([N+](=O)[O-])cc2)CC1` (stereo not drawn) [Example 194, 2-[(2-Aminoethoxy)methyl]-3-{N-[3-(4-ethoxycarbonyl-4-phenylpiperidin-1-yl)propyl]}carboxamido-1,4-dihydro-6-ethyl-5-(N-methyl) carboxamido-4-(4-nitrophenyl) pyridine] showed a melting point of 51 to 53 °C. Also, in data set [1] (setting [11]), the Ki is 4.9 µM. Also, the Ki in data set [2] (setting [12]) was 0.00372 µM.
As to `CCC1=C(C(=O)NC)C(c2ccc([N+](=O)[O-])cc2)C(C(=O)NCCCN2CCC(c3ccccc3)(c3ccccc3)CC2)=C(CCCCN)N1` (stereo not drawn) [Example 172, 2-(4-Aminobutyl)-6-ethyl-1,4-dihydro-5-(N-methyl)carboxamido-4-(4-nitrophenyl)-3-{N-[3-(4,4-diphenylpiperidin-1-yl)propyl]}carboxamidopyridine], the melting point lay in the range of 105 to 109 °C. In data set [1] (setting [7]), this molecule showed a Ki of 0.813 µM. Also, the Ki in data set [2] (setting [8]) is 0.00282 µM.

The melting point is the temperature, or range, at which the solid turns liquid.

The values above are taken from US6608086B2, “Dihydropyridines and new uses thereof” (Synaptic Pharmaceutical Corporation, priority 1993, dated 2003).
